Assay results: ChEMBL document CHEMBL1201862, “PubChem BioAssay data set” (2004)
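Where inhibition never reached the appropriate level, the endpoint shown equals the highest concentration tested. Otherwise, values were interpolated linearly from a five-concentration, 48-hour dose response in 96-well plates. GI50: concentration for 50% inhibition of growth.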 Active and inactive are the calls of the source. No stated cut-off is given here; in the data, active = GI50 up to about 1.1 µM and inactive = higher.

Key:
Experiment in all cases: NCI anticancer screen, dose series, 48 h
HOP-92 = tested on: HOP-92
NCI-H226 = tested on: NCI-H226
U-251 = tested on: U-251
SNB-75 = tested on: SNB-75
PC-3 = tested on: PC-3
M14 = tested on: M14
OVCAR-5 = tested on: OVCAR-5
HOP-62 = tested on: HOP-62
HT-29 = tested on: HT-29
HCT-116 = tested on: HCT-116
CCRF-CEM = tested on: CCRF-CEM
786-0 = tested on: 786-0
IGROV-1 = tested on: IGROV-1
NCI-H460 = tested on: NCI-H460
SK-MEL-28 = tested on: SK-MEL-28
NCI-H522 = tested on: NCI-H522
RXF 393 = tested on: RXF 393
OVCAR-8 = tested on: OVCAR-8
Malme-3M = tested on: Malme-3M
SK-MEL-5 = tested on: SK-MEL-5

SMILES | GI50 (HOP-92) | GI50 (NCI-H226) | GI50 (U-251) | GI50 (SNB-75) | GI50 (PC-3) | GI50 (M14) | GI50 (OVCAR-5) | GI50 (HOP-62) | GI50 (HT-29) | GI50 (HCT-116) | GI50 (CCRF-CEM) | GI50 (786-0) | GI50 (IGROV-1) | GI50 (NCI-H460) | GI50 (SK-MEL-28) | GI50 (NCI-H522) | GI50 (RXF 393) | GI50 (OVCAR-8) | GI50 (Malme-3M) | GI50 (SK-MEL-5)
CCOC(=O)c1cn2c(n1)sc1c(Cl)c(Cl)ccc12 | 24.5 µM (inactive) | 14.8 µM (inactive) | 11 µM (inactive) | 15 µM (inactive) | 18.3 µM (inactive) | 9.38 µM (inactive) | 30.2 µM (inactive) | 15.5 µM (inactive) | 12 µM (inactive) | 5.69 µM (inactive) | 4.97 µM (inactive) | 7.66 µM (inactive) | 13.8 µM (inactive) | > 60.1 µM (inactive) | 20.8 µM (inactive) | 4.11 µM (inactive) | 23.8 µM (inactive) | 15.9 µM (inactive) | 1.96 µM (inactive) | 6.7 µM (inactive)
COC1=CC(=O)c2c(O)c3c(c(O)c2C1=O)C[C@](C)(O)C[C@@H]3O | 9.48 µM (inactive) | 23.9 µM (inactive) | 4.69 µM (inactive) | 9.42 µM (inactive) | 3.4 µM (inactive) | 2.6 µM (inactive) | 12.7 µM (inactive) | 8.45 µM (inactive) | 2.72 µM (inactive) | 2.61 µM (inactive) | 5.7 µM (inactive) | 7.76 µM (inactive) | 4.61 µM (inactive) | 1.65 µM (inactive) | 7.05 µM (inactive) | 4.52 µM (inactive) | 5.3 µM (inactive) | 4.07 µM (inactive) | 1.03 µM (active) | 1.33 µM (inactive)
C=CN1CCN(c2ccccc2)P1(=O)Oc1ccccc1 (stereo not given) | 50.9 µM (inactive) | 65.2 µM (inactive) | > 100 µM (inactive) | 16.4 µM (inactive) | 31.3 µM (inactive) | 40.2 µM (inactive) | > 100 µM (inactive) | > 100 µM (inactive) | 92.9 µM (inactive) | 48 µM (inactive) | > 100 µM (inactive) | > 100 µM (inactive) | 53.7 µM (inactive) | > 100 µM (inactive) | > 100 µM (inactive) | 31.6 µM (inactive) | 42.5 µM (inactive) | 89.3 µM (inactive) | > 100 µM (inactive) | 87.7 µM (inactive)
Cc1cccc2sc(NC(=O)c3cc([N+](=O)[O-])ccc3Cl)nc12 | 2.77 µM (inactive) | 5.71 µM (inactive) | 2.85 µM (inactive) | 1 µM (active) | 4.14 µM (inactive) | 1.77 µM (inactive) | 5.87 µM (inactive) | 11.8 µM (inactive) | 1.85 µM (inactive) | 2.55 µM (inactive) | 0.0817 µM (active) | 1.89 µM (inactive) | 2.68 µM (inactive) | 3.96 µM (inactive) | 5.22 µM (inactive) | 1.78 µM (inactive) | 2.01 µM (inactive) | 2.36 µM (inactive) | 5.38 µM (inactive) | 1.84 µM (inactive)
NCCCN1c2ccccc2Sc2ccc(Cl)cc21 | > 10 µM (inactive) | 9.95 µM (inactive) | 5.38 µM (inactive) | > 6.98 µM (inactive) | 4.17 µM (inactive) | 1.73 µM (inactive) | > 5.28 µM (inactive) | > 10 µM (inactive) | 2.55 µM (inactive) | 2.53 µM (inactive) | 3.19 µM (inactive) | 3.24 µM (inactive) | > 5.43 µM (inactive) | 3.33 µM (inactive) | > 5.85 µM (inactive) | 3.2 µM (inactive) | > 7.28 µM (inactive) | 5.7 µM (inactive) | 6.97 µM (inactive) | > 4.02 µM (inactive)
CC1(C)OC(=O)C(C)(C)OC1=O | > 100 µM (inactive) | > 100 µM (inactive) | > 100 µM (inactive) | > 100 µM (inactive) | > 100 µM (inactive) | > 100 µM (inactive) | > 100 µM (inactive) | > 100 µM (inactive) | > 100 µM (inactive) | > 100 µM (inactive) | > 100 µM (inactive) | > 100 µM (inactive) | > 100 µM (inactive) | > 100 µM (inactive) | > 100 µM (inactive) | > 100 µM (inactive) | > 100 µM (inactive) | > 100 µM (inactive) | > 100 µM (inactive) | > 100 µM (inactive)
Cc1cnc2[nH]c(-c3ccccc3)cc(=O)c2c1 | 0.065 µM (active) | 0.122 µM (active) | 0.0188 µM (active) | 0.0122 µM (active) | 0.0161 µM (active) | 0.0213 µM (active) | 3.07 µM (inactive) | 1.21 µM (inactive) | 0.0101 µM (active) | < 0.0155 µM (active) | 0.0159 µM (active) | 0.043 µM (active) | 0.0817 µM (active) | 0.0259 µM (active) | 0.0363 µM (active) | < 0.0118 µM (active) | 0.0154 µM (active) | 0.04 µM (active) | 0.017 µM (active) | < 0.01 µM (active)
COc1ccc(/N=C\c2ccc(N(CCC#N)CCC#N)cc2)cc1 | 99.3 µM (inactive) | > 100 µM (inactive) | > 83.2 µM (inactive) | > 100 µM (inactive) | 47 µM (inactive) | 28.1 µM (inactive) | 55.5 µM (inactive) | > 56.2 µM (inactive) | > 67.6 µM (inactive) | 63.8 µM (inactive) | 48.1 µM (inactive) | 52.2 µM (inactive) | 82 µM (inactive) | 43.1 µM (inactive) | > 81.1 µM (inactive) | > 95.1 µM (inactive) | > 78.5 µM (inactive) | 74.6 µM (inactive) | > 84.9 µM (inactive) | 40.4 µM (inactive)
Nc1ccccc1N/C=C\C(=O)C(Cl)(Cl)Cl | 19 µM (inactive) | 82.6 µM (inactive) | 25.6 µM (inactive) | 22.6 µM (inactive) | 35.3 µM (inactive) | 14.7 µM (inactive) | 20.1 µM (inactive) | 19.3 µM (inactive) | 18.9 µM (inactive) | 16.2 µM (inactive) | 4.26 µM (inactive) | 15 µM (inactive) | 16.4 µM (inactive) | 31.3 µM (inactive) | 17.5 µM (inactive) | 20.2 µM (inactive) | 20.1 µM (inactive) | 29 µM (inactive) | 33.2 µM (inactive) | 44 µM (inactive)
COc1cc(/C=C/c2sc3ccccc3[n+]2C)ccc1N(C)C | 1.85 µM (inactive) | 22.4 µM (inactive) | 6.9 µM (inactive) | > 10 µM (inactive) | 3.24 µM (inactive) | 13.4 µM (inactive) | 20.3 µM (inactive) | 17.9 µM (inactive) | 17.9 µM (inactive) | 3.3 µM (inactive) | 2.06 µM (inactive) | 12.2 µM (inactive) | 7.41 µM (inactive) | 6.11 µM (inactive) | 8.2 µM (inactive) | 3.01 µM (inactive) | 16.6 µM (inactive) | 2.93 µM (inactive) | 2.49 µM (inactive) | 4.14 µM (inactive)
CC(=O)OCC1OC(NC(=S)Nn2c(-c3ccccc3)nc3ccccc3c2=O)C(OC(C)=O)C(OC(C)=O)C1OC(C)=O (stereo not given) | 38.4 µM (inactive) | 14.7 µM (inactive) | > 100 µM (inactive) | 96.8 µM (inactive) | > 100 µM (inactive) | 62.7 µM (inactive) | > 100 µM (inactive) | 97.7 µM (inactive) | > 100 µM (inactive) | > 100 µM (inactive) | 38.5 µM (inactive) | > 100 µM (inactive) | 33.8 µM (inactive) | > 100 µM (inactive) | 90.2 µM (inactive) | 45.5 µM (inactive) | > 100 µM (inactive) | > 100 µM (inactive) | 52.8 µM (inactive) | 35.8 µM (inactive)
CC(C)(C)N1C=[N+](C(C)(C)C)CC1 | > 100 µM (inactive) | > 100 µM (inactive) | > 100 µM (inactive) | 75 µM (inactive) | > 100 µM (inactive) | > 100 µM (inactive) | > 100 µM (inactive) | > 100 µM (inactive) | > 100 µM (inactive) | > 100 µM (inactive) | > 100 µM (inactive) | > 100 µM (inactive) | > 100 µM (inactive) | > 100 µM (inactive) | > 100 µM (inactive) | > 100 µM (inactive) | > 100 µM (inactive) | > 100 µM (inactive) | > 100 µM (inactive) | > 100 µM (inactive)
C=C1C(=O)OC2C1C(OC(=O)/C(C)=C/C)CC1(C)C(=O)CCC(=C)C21 (stereo not given) | 1.62 µM (inactive) | 20.7 µM (inactive) | 13.1 µM (inactive) | 15.9 µM (inactive) | 11 µM (inactive) | 5.26 µM (inactive) | 14.8 µM (inactive) | 16.9 µM (inactive) | 4.88 µM (inactive) | 4.03 µM (inactive) | 2.3 µM (inactive) | 4.02 µM (inactive) | 11.3 µM (inactive) | 13.3 µM (inactive) | 3.47 µM (inactive) | 2.54 µM (inactive) | 2.83 µM (inactive) | 12.1 µM (inactive) | 5.85 µM (inactive) | 7.64 µM (inactive)
C#CC(O)/C=C/C(O)CCCC(O)CC#CC(O)C#CCCCCC(O)/C=C/CCCC(O)/C=C/CCCCCCCCCCCCCC(O)C(O)C#CC(=O)O (stereo not given) | > 25 µM (inactive) | > 25 µM (inactive) | > 25 µM (inactive) | 20 µM (inactive) | > 25 µM (inactive) | > 25 µM (inactive) | > 25 µM (inactive) | > 25 µM (inactive) | > 25 µM (inactive) | > 25 µM (inactive) | > 25 µM (inactive) | > 25 µM (inactive) | > 25 µM (inactive) | > 25 µM (inactive) | > 25 µM (inactive) | 12.8 µM (inactive) | > 25 µM (inactive) | > 25 µM (inactive) | 23.2 µM (inactive) | > 25 µM (inactive)
